Data on 13 molecules can be found in publication PMC12368479, “Inhibition of the Clathrin Terminal Domain—Amphiphysin Protein–Protein Interaction. Probing the Pitstop 2 Aromatic Moiety” (Chemmedchem, 2025).

Where two headings read alike, the source gives them in different places. A value given as a limit tells only on which side of the number the result lay.

The target in data set [1] is T1, full length human Dynamin I (Homo sapiens, UniProt Q05193).
T1 construct: full length human Dynamin I expressed in Sf21 insect cells; made in house; host or cells: Sf21 insect cells
T1 sequence (Q05193 1-864): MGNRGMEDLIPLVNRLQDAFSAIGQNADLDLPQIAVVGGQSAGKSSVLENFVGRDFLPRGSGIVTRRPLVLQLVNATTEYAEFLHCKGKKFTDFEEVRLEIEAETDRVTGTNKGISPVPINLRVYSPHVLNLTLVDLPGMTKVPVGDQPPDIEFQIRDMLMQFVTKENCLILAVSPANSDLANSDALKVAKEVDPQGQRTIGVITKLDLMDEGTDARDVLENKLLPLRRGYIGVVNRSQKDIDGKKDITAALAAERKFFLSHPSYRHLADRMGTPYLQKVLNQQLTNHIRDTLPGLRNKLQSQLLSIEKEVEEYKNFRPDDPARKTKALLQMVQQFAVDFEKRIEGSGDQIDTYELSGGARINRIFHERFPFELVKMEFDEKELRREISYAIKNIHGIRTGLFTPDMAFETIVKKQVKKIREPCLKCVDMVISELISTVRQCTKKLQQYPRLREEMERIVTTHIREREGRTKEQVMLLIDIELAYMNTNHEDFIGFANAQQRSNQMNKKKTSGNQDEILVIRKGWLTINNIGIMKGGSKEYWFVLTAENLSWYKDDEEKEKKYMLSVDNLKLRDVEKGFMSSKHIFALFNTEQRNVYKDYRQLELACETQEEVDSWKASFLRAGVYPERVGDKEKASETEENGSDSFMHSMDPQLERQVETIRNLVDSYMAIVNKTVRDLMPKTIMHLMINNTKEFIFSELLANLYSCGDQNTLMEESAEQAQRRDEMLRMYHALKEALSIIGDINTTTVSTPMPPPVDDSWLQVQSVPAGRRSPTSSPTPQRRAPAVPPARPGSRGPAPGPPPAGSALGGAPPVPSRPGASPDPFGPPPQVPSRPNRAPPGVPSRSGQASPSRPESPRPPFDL
In words: Dynamin GTPase activity, Malachite Green phosphate detection assay. The data set is classed as biochemical. As for the experimental part: Dynamin GTPase activity was determined in vitro using the Malachite Green phosphate detection absorbance‐based assay within a 96‐well plate format as described previously. The enzyme source was full length human Dynamin I expressed in Sf21 insect cells and affinity‐purified on GST‐Amph2‐SH3 (rat Amphiphysin 2 (494–588)).^[ [56] ^]

In data set [2] the test system is transferrin uptake (CME) in U2OS osteosarcoma cells. In words: Clathrin-mediated endocytosis assay: transferrin (Tfn) uptake in U2OS cells. Particulars: Homo sapiens, U2OS; for inhibition at 5 µM: read-out: 2-point CME (% Inhibition) 5 µM; for inhibition at 50 µM: read-out: 2-point CME (% Inhibition) 50 µM. It is filed as cell-based. As for the experimental part:
Using our previously reported CME assay in U2OS cells, the ability of these compounds to block endocytosis was examined (Table 5 ).^[ [48], [49] ^]
CME was examined by a high‐throughput, quantitative assay for measuring transferrin (Tfn) uptake in U2OS osteosarcoma cells, based on methods described previously.^[ [48] ^]
Compounds were made up fresh from powder stock just prior to commencing the assay, and stock solutions were stored at −20 °C for several months.

A short description of data set [3]: Qualitative solubility in solvents (compound data sheets, Supporting Information). The data set is classed as physicochemical. Conditions: solvents in which the compound dissolves.
Data set [4] has as its target T2, clathrin heavy chain NTD (amino acids 1–364) – amphiphysin 1 B/C domain protein–protein interaction (NTD‐PPI) (Homo sapiens, UniProt Q00610).
T2 construct: GST‐tagged clathrin heavy chain NTD (amino acids 1–364); made in house
T2 sequence (Q00610 1-364): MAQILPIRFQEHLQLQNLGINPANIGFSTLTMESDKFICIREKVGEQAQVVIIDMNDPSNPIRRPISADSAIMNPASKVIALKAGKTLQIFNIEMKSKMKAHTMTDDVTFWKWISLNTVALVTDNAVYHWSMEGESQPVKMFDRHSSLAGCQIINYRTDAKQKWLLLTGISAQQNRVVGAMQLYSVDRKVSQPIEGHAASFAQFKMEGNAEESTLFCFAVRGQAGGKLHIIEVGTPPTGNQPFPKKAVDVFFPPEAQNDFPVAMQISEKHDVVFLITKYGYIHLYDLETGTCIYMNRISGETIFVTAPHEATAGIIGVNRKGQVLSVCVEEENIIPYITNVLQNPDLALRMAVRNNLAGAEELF
In words: ELISA-based clathrin inhibitor binding assay (NTD-PPI). The procedure, abridged:
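His6-tagged amphiphysin 1 B/C domain (aa 250–578) was coated on plates in 20 mM HEPES pH 7.4, 50 mM NaCl, 1 mM DTT; compounds were incubated 1 h at room temperature with GST-clathrin NTD (aa 1–364). Bound NTD was detected by HRP anti-GST and TMB absorbance, expressed as percent binding of DMSO control.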

[5] abbreviates: Table 1, library 1, n = 1 unless noted (19: n = 2), '–' = not active at 150 μM, read-out: Dyn 1 IC50.
The mark [6] stands for this setting: Table 5, dynamin GTPase, n = 1 or n = 2 as footnoted, NA = not active at 100 μM, read-out: Dynamin 1 IC50.
Where [7] appears, read: Table 5, inhibition of transferrin‐red uptake in U2OS cells, '–'/NA = not active at 100 μM.
[8] abbreviates: Table 1, library 1, ELISA, average of duplicate measurements (n=2), read-out: NTD‐PPI IC50.
[9] abbreviates: Table 4, library 4, ELISA, average of duplicate measurements (n = 2), read-out: NTD‐PPI IC50.
Where [10] appears, read: Table 5, ELISA, read-out: NTD‐PPI IC50.
The mark [11] stands for this setting: Table S1, average of duplicate measurements (n=2), read-out: NTD-PPI IC50.
[12] abbreviates: Table 4, library 4, n = 1 or n = 2 as footnoted, '–' = not active at 100 μM, read-out: Dynamin 1 IC50.
Setting [13] is: Table S1, preliminary (n=1) unless otherwise noted, NA = not active, includes IC50 > 150 μM, read-out: Dynamin 1 IC50.

By IC50 is commonly meant the midpoint of a concentration-inhibition curve. Turning to `O=C1N=C(NS(=O)(=O)c2cccc3ccccc23)S/C1=C\c1cccc(O)c1` [compound 7, N‐[(5Z)‐5‐(3‐hydroxybenzylidene)‐4‐oxo‐4,5‐dihydro‐1,3‐thiazol‐2‐yl]naphthalene‐1‐sulfonamide], the IC50 is more than 150 µM in data set [1] (setting [5]), more than 100 µM in data set [1] (setting [6]) and 25 ± 14.6 µM in data set [2] (setting [7]). Also, the Solubility result in data set [3] was “DMSO, slightly soluble in acetone, ethyl acetate, methanol and ethanol”.

For `O=C1N=C(NS(=O)(=O)c2cccc3ccccc23)S/C1=C\c1ccc(C(=O)O)cc1` [compound 9, 4‐[(Z)‐{2‐[(naphthalen‐1‐ylsulfonyl)amino]‐4‐oxo‐1,3‐thiazol‐5(4H)‐ylidene}methyl]benzoic acid], the IC50 in data set [4] (setting [8]) is 7.4 µM; in data set [1] (setting [5]), more than 150 µM. In addition, the Solubility entry in data set [3] was “DMSO, slightly soluble in acetone, ethyl acetate, ethanol and methanol”.

As to `O=C1N=C(NS(=O)(=O)c2cccc3ccccc23)S/C1=C\c1cccc(C(=O)O)c1` [compound 10, (Z)‐3‐((2‐(naphthalene‐1‐sulfonamido)‐4‐oxothiazol‐5(4 H)‐ylidene)methyl)benzoic acid], the figures for the IC50 in data set [4] (setting [8]) and in data set [1] (setting [5]) were 5.3 µM and more than 150 µM, respectively. Also, the Solubility result in data set [3] is “DMSO”.

Turning to `O=C1N=C(NS(=O)(=O)c2cccc3ccccc23)S/C1=C\c1ccc[nH]1` [compound 47, (Z)‐N‐(5‐((1H‐pyrrol‐2‐yl)methylene)‐4‐oxo‐4,5‐dihydrothiazol‐2‐yl)naphthalene‐1‐sulfonamide], in data set [4] (ELISA, C2 linked analogues), the “fold less active (NTD‐PPI) than furan (48)” value is given as 2 fold. Besides, the IC50 in data set [4] (setting [9]) was determined as 5.3 µM; in data set [4] (setting [10]), 5.3 µM; in data set [2] (setting [7]) it was 27.2 ± 11.7 µM. Moreover, in data set [3], the Solubility entry was “DM SO slightly soluble in acetone an d methanol”.

With `O=C1N=C(NS(=O)(=O)c2cccc3ccccc23)S/C1=C\c1ccco1` [compound 48, (Z)‐N‐(5‐(furan‐2‐ylmethylene)‐4‐oxo‐4,5‐dihydrothiazol‐2‐yl)naphthalene‐1‐sulfonamide], the IC50 in data set [4] (setting [9]) was 3.64 µM; in data set [4] (setting [10]), 3.64 µM; in data set [4] (read-out: NTD‐PPI IC50 (ELISA)), 3.6 µM; in data set [2] (setting [7]), approximately 96.6 µM; in data set [2] (U2OS cells), more than 50 µM. Besides, the Solubility result in data set [3] was “DM SO, slig htly soluble in methanol”.

One may read the inhibition as the share of the control response that was lost under treatment. Consider `O=C1N=C(NS(=O)(=O)c2cccc3ccccc23)S/C1=C\c1ccc2[nH]ccc2c1` [compound 59, (Z)‐N‐(5‐((1H‐indol‐5‐yl)methylene)‐4‐oxo‐4,5‐dihydrothiazol‐2‐yl)naphthalene‐1‐sulfonamide], for which the IC50 is 3.66 µM in data set [4] (setting [9]), 3.7 µM in data set [4] (setting [11]) and 83.8 ± 10.7 µM in data set [1] (setting [12]). In data set [2], the inhibition at 5 µM was 0%. In addition, the inhibition at 50 µM in data set [2] amounted to 83%.

For the molecule `O=C1N=C(NS(=O)(=O)c2cccc3ccccc23)S/C1=C\c1c[nH]c2ccccc12` [compound 60, (Z)‐N‐(5‐((1H‐indol‐3‐yl)methylene)‐4‐oxo‐4,5‐dihydrothiazol‐2‐yl)naphthalene‐1‐sulfonamide], the IC50 in data set [4] (setting [9]) was 3.2 µM. Moreover, the IC50 in data set [1] (setting [13]) is more than 150 µM. In data set [2], the inhibition at 5 µM stood at 0% and the inhibition at 50 µM was 38%.

As to `Cn1cc(/C=C2\SC(NS(=O)(=O)c3cccc4ccccc34)=NC2=O)c2ccccc21` [compound 61, (Z)‐N‐(5‐((1‐methyl‐1H‐indol‐3‐yl)methylene)‐4‐oxo‐4,5‐dihydrothiazol‐2‐yl)naphthalene‐1‐sulfonamide], the values for the IC50 in data set [4] (setting [9]), in data set [4] (read-out: NTD‐PPI IC50 (ELISA)) and in data set [1] (setting [13]) were 3.05 µM, 3 µM and more than 150 µM, respectively. Further, in data set [2], the inhibition at 5 µM amounted to 9%. In addition, the inhibition at 50 µM in data set [2] was 69%.

For the molecule `Cc1[nH]c2ccccc2c1/C=C1\SC(NS(=O)(=O)c2cccc3ccccc23)=NC1=O` [compound 62, (Z)‐N‐(5‐((2‐methyl‐1H‐indol‐3‐yl)methylene)‐4‐oxo‐4,5‐dihydrothiazol‐2‐yl)naphthalene‐1‐sulfonamide], the IC50 in data set [4] (setting [9]) was 2.37 µM; in data set [4] (read-out: NTD‐PPI IC50 (ELISA)) it was 2.4 µM; in data set [1] (setting [12]), more than 100 µM; in data set [1] (setting [13]) it was more than 150 µM. In data set [2], the inhibition at 5 µM amounted to 6%. Besides, the inhibition at 50 µM in data set [2] was 71%.

Take `Cc1ccc2[nH]cc(/C=C3\SC(NS(=O)(=O)c4cccc5ccccc45)=NC3=O)c2c1` [compound 63, (Z)‐N‐(5‐((5‐methyl‐1H‐indol‐3‐yl)methylene)‐4‐oxo‐4,5‐dihydrothiazol‐2‐yl)naphthalene‐1‐sulfonamide]: the concentration for half-maximal inhibition (IC50) in data set [4] (setting [9]) is 3.52 µM; in data set [4] (read-out: NTD‐PPI IC50 (ELISA)), 3.5 µM; in data set [1] (setting [12]), more than 100 µM; in data set [1] (setting [13]), more than 150 µM. Further, in data set [2], the inhibition at 5 µM is 6%. Besides, the inhibition at 50 µM in data set [2] turned out to be 68%.

Turning to `O=C1N=C(NS(=O)(=O)c2cccc3ccccc23)S/C1=C\c1c[nH]c2cc(Br)ccc12` [compound 64, (Z)‐N‐(5‐((6‐bromo‐1H‐indol‐3‐yl)methylene)‐4‐oxo‐4,5‐dihydrothiazol‐2‐yl)naphthalene‐1‐sulfonamide], the IC50 in data set [4] (setting [9]) was 3.42 µM; in data set [4] (read-out: NTD‐PPI IC50 (ELISA)), 3.4 µM; in data set [1] (setting [12]), more than 100 µM; in data set [1] (setting [13]) it was more than 150 µM. The inhibition at 5 µM in data set [2] stood at 17%. The inhibition at 50 µM in data set [2] came out at 70%.

Turning to `O=C1N=C(NS(=O)(=O)c2cccc3ccccc23)S/C1=C\c1c[nH]c2ccc(Br)cc12` [compound 65, (Z)‐N‐(5‐((5‐bromo‐1H‐indol‐3‐yl)methylene)‐4‐oxo‐4,5‐dihydrothiazol‐2‐yl)naphthalene‐1‐sulfonamide], the IC50 in data set [4] (setting [9]) was 2.91 µM; in data set [4] (setting [11]), 2.9 µM; in data set [1] (setting [12]) it was more than 100 µM; in data set [1] (setting [13]), more than 150 µM. Further, in data set [2], the inhibition at 5 µM came out at 0%. The inhibition at 50 µM in data set [2] is 64%.

For the molecule `O=C1N=C(NS(=O)(=O)c2cccc3ccccc23)S/C1=C\c1cn(S(=O)(=O)c2ccccc2)c2ccccc12` [compound 68, (Z)‐N‐(4‐oxo‐5‐((1‐(phenylsulfonyl)‐1H‐indol‐3‐yl)methylene)‐4,5‐dihydrothiazol‐2‐yl)naphthalene‐1‐sulfonamide], the IC50 in data set [4] (setting [9]) was 27 µM; in data set [4] (setting [10]), 27 µM; in data set [1] (setting [12]) it was 99.8 ± 3.1 µM; in data set [1] (setting [6]) it was 99.8 ± 3.1 µM; in data set [2] (setting [7]), more than 100 µM. Further, the inhibition at 5 µM in data set [2] was determined as 8%. The inhibition at 50 µM in data set [2] came out at 59%.
